Measurements: ChEMBL document CHEMBL1144455, “A small molecule-kinase interaction map for clinical kinase inhibitors” (Nat Biotechnol, 2005)
pKd: −log10 of the molar value.

What was measured:
[1] = target: Tyrosine-protein kinase BTK (Homo sapiens, UniProt Q06187)
Activated CDC42 kinase 1 = Activated CDC42 kinase 1 (Homo sapiens, UniProt Q07912)
[2] = target: Dual specificity protein kinase CLK3 (Homo sapiens, UniProt P49761)
[3] = target: T1, Serine/threonine-protein kinase 17A (Homo sapiens, UniProt Q9UEE5)
T1 sequence (Q9UEE5 whole entry): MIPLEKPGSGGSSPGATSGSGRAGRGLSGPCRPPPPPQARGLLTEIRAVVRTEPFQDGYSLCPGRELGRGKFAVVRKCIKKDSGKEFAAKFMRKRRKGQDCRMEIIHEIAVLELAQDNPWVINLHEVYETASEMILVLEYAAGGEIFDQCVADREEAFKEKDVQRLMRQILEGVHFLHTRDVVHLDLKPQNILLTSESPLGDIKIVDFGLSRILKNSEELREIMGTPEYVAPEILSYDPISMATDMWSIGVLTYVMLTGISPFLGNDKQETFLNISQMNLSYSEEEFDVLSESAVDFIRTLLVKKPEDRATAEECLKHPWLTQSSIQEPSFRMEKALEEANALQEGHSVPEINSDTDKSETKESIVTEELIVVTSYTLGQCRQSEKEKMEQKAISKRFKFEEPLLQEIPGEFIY

[4] = target: Serine/threonine-protein kinase pim-2 (Homo sapiens, UniProt Q9P1W9)
Chain of Serine/threonine-protein kinase pim-2 (Q9P1W9 whole entry): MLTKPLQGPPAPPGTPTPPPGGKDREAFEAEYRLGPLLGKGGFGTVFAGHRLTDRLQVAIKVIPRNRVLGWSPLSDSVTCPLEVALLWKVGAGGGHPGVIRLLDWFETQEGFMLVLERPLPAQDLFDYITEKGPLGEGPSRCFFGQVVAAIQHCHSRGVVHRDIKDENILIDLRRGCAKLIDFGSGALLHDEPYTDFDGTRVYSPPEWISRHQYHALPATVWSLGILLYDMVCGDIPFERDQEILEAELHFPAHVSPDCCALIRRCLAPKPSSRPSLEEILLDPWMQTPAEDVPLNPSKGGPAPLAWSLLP

[5] = target: T2, Serine/threonine-protein kinase ULK3 (Mus musculus, UniProt Q3U3Q1)
T2 sequence (Q3U3Q1 whole entry): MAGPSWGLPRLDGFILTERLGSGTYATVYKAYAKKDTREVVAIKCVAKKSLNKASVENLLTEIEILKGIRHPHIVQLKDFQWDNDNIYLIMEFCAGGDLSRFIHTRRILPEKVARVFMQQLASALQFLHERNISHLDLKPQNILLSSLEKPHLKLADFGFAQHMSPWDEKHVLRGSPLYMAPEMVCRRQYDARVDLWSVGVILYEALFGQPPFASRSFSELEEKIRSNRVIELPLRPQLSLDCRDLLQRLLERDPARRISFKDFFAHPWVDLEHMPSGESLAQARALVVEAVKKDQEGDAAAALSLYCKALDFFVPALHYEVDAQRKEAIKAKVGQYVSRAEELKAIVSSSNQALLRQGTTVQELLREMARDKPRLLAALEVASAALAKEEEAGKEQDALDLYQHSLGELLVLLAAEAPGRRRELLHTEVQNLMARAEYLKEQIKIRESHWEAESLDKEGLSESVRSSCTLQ

[6] = target: MAP kinase-interacting serine/threonine-protein kinase 2 (Homo sapiens, UniProt Q9HBH9)
Chain of MAP kinase-interacting serine/threonine-protein kinase 2 (Q9HBH9 whole entry): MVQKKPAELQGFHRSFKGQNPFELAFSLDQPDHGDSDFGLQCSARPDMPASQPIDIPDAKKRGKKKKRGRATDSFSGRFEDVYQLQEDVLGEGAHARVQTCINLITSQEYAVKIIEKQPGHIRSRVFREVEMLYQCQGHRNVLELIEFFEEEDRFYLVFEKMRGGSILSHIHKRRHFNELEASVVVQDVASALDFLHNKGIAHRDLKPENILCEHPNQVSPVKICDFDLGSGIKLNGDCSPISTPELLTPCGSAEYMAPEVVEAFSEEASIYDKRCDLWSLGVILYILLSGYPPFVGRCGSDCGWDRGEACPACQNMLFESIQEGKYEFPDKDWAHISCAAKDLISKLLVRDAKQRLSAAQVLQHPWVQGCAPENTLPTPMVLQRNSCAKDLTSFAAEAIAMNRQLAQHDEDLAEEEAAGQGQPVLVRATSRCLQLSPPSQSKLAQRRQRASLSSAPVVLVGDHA

[7] = target: Calcium/calmodulin-dependent protein kinase kinase 2 (Homo sapiens, UniProt Q96RR4)
Chain of Calcium/calmodulin-dependent protein kinase kinase 2 (Q96RR4 whole entry): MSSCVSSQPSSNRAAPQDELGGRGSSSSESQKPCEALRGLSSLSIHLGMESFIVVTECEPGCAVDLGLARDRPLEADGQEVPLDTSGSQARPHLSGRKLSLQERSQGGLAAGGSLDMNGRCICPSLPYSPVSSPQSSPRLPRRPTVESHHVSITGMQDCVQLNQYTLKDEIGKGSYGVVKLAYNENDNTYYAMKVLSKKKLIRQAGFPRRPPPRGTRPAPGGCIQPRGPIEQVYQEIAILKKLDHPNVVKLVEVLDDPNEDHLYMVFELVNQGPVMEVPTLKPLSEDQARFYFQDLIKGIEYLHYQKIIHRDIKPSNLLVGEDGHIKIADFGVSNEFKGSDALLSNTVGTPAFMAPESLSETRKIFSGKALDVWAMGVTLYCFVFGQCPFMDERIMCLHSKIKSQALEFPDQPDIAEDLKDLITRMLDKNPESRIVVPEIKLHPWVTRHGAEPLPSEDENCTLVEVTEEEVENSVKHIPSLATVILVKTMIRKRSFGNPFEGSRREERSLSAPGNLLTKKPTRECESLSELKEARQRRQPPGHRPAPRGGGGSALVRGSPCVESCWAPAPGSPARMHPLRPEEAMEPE

[8] = target: T3, Serine/threonine-protein kinase 4 (Homo sapiens, UniProt Q13043)
T3 sequence (Q13043 whole entry): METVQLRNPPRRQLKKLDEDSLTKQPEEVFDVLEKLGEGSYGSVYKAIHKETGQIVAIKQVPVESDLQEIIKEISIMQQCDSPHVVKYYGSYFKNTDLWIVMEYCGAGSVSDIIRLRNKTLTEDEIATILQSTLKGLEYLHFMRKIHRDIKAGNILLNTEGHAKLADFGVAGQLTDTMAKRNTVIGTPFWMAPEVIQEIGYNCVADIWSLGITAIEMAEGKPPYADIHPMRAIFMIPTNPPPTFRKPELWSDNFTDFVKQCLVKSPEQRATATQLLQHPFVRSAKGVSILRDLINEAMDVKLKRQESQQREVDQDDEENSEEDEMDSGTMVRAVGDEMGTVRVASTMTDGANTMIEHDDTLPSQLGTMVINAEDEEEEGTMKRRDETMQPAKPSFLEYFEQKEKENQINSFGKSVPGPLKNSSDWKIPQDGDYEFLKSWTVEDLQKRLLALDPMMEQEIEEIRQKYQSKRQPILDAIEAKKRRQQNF

[9] = target: T4, Serine/threonine-protein kinase PLK4 (Homo sapiens, UniProt O00444)
T4 sequence (O00444 whole entry): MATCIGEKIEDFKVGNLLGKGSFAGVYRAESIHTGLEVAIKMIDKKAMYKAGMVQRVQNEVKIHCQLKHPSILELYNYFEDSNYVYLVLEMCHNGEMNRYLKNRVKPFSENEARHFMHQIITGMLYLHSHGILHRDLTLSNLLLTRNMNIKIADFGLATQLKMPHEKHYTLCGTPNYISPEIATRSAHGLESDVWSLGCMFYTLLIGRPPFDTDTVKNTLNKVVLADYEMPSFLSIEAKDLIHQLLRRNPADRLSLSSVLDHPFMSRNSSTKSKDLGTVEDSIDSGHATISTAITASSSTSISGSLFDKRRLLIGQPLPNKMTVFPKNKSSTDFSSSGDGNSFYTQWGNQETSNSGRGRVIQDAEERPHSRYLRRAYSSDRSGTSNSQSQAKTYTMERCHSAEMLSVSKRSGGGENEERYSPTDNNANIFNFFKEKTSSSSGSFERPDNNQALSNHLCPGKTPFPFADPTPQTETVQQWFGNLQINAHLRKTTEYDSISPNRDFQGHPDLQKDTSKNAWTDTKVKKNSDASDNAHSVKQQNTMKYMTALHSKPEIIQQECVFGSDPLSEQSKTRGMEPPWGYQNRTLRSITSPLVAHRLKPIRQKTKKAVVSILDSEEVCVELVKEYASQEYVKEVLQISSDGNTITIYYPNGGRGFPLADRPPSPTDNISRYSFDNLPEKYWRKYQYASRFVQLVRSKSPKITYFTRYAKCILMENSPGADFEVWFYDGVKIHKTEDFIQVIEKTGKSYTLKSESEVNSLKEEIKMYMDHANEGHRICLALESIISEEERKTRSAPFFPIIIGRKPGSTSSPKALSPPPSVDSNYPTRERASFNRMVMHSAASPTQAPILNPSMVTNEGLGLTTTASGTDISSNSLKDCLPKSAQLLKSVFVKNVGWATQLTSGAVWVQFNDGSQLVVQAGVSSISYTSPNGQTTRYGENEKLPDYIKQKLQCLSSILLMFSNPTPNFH

[10] = target: Cyclin-dependent kinase 2 (Homo sapiens, UniProt P24941)
[11] = target: Death-associated protein kinase 2 (Homo sapiens, UniProt Q9UIK4)
Chain of Death-associated protein kinase 2 (Q9UIK4 whole entry, canonical isoform): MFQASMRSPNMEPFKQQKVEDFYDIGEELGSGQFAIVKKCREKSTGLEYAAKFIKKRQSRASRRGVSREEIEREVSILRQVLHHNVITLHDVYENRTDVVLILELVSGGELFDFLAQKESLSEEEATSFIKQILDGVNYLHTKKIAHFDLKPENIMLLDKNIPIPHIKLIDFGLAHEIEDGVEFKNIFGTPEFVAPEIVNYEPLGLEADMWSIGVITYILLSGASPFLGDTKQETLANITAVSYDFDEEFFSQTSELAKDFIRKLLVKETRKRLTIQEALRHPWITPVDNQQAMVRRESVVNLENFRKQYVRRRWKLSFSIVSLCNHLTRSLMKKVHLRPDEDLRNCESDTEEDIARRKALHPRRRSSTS

[12] = target: Casein kinase I isoform gamma-1 (Homo sapiens, UniProt Q9HCP0)
Chain of Casein kinase I isoform gamma-1 (Q9HCP0 whole entry, canonical isoform): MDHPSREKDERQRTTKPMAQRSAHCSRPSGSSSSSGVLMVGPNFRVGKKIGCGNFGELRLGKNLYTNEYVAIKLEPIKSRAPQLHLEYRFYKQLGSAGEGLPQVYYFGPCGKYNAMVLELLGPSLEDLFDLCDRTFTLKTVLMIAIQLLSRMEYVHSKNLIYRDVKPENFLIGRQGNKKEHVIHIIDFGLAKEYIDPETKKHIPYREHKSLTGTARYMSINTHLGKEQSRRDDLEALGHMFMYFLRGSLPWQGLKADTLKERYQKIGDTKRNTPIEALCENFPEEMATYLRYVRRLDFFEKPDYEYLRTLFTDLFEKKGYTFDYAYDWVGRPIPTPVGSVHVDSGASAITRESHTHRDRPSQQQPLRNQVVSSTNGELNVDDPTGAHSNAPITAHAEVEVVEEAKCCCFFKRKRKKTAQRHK

[13] = target: Death-associated protein kinase 3 (Homo sapiens, UniProt O43293)
Chain of Death-associated protein kinase 3 (O43293 whole entry): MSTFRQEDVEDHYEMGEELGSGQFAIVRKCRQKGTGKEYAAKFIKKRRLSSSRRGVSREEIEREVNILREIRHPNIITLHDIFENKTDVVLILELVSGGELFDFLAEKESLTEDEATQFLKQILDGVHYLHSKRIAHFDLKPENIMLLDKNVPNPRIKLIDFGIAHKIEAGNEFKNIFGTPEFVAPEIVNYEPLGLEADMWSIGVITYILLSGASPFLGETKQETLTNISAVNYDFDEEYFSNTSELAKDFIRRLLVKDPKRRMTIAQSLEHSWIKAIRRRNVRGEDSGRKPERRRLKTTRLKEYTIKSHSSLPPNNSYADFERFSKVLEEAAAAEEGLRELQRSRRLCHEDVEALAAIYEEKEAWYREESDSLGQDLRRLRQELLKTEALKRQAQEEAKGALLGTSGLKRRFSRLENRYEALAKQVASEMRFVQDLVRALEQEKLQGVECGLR

Chain of Tyrosine-protein kinase BTK (Q06187 whole entry): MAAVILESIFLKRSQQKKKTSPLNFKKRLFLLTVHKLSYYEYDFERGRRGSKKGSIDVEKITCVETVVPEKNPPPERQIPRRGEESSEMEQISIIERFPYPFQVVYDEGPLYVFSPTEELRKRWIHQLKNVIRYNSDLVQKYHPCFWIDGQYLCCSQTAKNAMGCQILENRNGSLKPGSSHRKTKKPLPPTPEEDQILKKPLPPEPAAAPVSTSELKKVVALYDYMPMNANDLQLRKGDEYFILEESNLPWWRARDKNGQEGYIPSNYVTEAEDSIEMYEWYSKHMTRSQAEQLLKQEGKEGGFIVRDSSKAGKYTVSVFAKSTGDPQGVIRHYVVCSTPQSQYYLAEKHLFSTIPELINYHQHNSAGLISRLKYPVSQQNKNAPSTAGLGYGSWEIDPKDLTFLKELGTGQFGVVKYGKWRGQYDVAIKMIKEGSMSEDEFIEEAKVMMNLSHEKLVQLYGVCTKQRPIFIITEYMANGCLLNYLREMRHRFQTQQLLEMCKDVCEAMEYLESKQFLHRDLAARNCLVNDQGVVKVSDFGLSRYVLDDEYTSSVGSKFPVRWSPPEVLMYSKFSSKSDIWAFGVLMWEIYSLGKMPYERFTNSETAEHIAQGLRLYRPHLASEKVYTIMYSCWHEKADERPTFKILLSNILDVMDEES
Chain of Activated CDC42 kinase 1 (Q07912 whole entry): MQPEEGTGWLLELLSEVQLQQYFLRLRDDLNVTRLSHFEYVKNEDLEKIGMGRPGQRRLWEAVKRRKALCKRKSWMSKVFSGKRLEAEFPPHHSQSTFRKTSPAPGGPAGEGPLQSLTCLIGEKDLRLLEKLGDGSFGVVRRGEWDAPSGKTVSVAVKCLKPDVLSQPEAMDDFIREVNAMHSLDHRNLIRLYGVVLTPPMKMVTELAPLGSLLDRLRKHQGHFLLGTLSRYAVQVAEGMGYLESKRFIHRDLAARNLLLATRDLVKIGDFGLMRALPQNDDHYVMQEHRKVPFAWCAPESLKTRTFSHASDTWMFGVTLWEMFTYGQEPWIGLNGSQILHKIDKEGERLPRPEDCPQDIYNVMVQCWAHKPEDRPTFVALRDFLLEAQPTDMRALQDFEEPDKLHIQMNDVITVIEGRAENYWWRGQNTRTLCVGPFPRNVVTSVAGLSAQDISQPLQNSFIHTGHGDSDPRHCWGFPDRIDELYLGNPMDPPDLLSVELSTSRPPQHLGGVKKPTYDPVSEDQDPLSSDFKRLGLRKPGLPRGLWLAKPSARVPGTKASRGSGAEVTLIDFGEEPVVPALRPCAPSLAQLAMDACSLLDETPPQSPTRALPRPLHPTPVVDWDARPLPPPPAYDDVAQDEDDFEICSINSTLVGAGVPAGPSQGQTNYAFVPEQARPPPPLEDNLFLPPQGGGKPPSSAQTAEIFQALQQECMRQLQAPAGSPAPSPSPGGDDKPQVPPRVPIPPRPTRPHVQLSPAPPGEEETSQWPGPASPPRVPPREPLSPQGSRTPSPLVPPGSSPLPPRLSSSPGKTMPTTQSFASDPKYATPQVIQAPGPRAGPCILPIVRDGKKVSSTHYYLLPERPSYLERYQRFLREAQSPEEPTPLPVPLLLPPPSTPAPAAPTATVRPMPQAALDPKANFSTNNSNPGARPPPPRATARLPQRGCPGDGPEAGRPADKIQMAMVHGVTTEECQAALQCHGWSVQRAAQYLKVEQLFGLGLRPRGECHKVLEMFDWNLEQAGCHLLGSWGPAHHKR
Chain of Dual specificity protein kinase CLK3 (P49761 whole entry): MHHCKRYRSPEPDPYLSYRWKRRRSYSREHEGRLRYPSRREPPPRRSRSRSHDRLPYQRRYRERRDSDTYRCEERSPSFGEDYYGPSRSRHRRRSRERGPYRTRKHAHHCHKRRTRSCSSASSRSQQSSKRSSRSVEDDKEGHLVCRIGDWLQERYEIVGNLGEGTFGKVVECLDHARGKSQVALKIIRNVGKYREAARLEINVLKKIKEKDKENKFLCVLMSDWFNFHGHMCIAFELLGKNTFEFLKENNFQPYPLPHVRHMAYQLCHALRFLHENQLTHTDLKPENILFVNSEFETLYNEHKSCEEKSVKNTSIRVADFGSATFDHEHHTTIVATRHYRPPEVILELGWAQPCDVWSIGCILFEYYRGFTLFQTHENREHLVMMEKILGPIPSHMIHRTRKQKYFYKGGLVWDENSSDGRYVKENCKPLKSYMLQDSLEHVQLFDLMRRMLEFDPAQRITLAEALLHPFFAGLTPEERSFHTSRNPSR

Structure (SMILES) | pKd [1] | pKd (Activated CDC42 kinase 1) | pKd [2] | pKd [3] | pKd [4] | pKd [5] | pKd [6] | pKd [7] | pKd [8] | pKd [9] | pKd [10] | pKd [11] | pKd [12] | pKd [13]
CCOc1cc2ncc(C#N)c(Nc3ccc(F)c(Cl)c3)c2cc1NC(=O)/C=C/CN(C)C [PELITINIB] | 5.82 | 6.05 | 5.68 | – | – | – | – | – | – | – | – | – | – | –
Oc1c2ccccc2c2c3c(cccc13)N=N2 [SP-600125] | – | – | – | 5.68 | 6.34 | 6.17 | 6.00 | 5.12 | 5.66 | 6.11 | 5.49 | 6.21 | 5.43 | 6.39
